From patent publication US9777258B2, “Methods for differentiating cells into hepatic stellate cells and hepatic sinusoidal endothelial cells, cells produced by the method, and methods for using the cells” (Katholieke Universiteit Leuven, priority 2010, dated 2017)

Tested on: Cyp1a2
Experiment: Cytochrome P450 activity (P450-Glo Assay, induction of Cyp1a2)
Settings: mouse iPS-derived hepatocyte-like cells kept in final maturation medium until day 42; incubation with 100 μM phenobarbital
Method: Cytochrome P450 activity. Cytochrome […] activity was detected by using the non-lytic method of P450-Glo™ Assay (Promega V8771). Mouse iPS cells were incubated with luminogenic substrate (Luciferin-ME) for 4 hours at 37° C. 50 μl was mixed with 50 μl Luciferin Detection Reagent in triplicate. Mean luminescence was calculated from 11 consecutive time points with 2 minutes interval. Induction of Cyp1a2 was performed by incubation with 100 μM phenobarbital.

## CCC1(c2ccccc2)C(=O)NC(=O)NC1=O [phenobarbital]
  increase of Cyp1a2 activity: 45%
